Where a name gives a salt, the structure may show the parent alone.
The compounds below were run against T1, human V1a receptor (Homo sapiens, UniProt P37288) (assay: human V1a receptor binding studies (SPA, 3H-Vasopressin, membranes of transfected HEK293 cells)). Settings: displacement of 3H-Vasopressin, HEK293 cell membranes, 1 h at room temperature; Ki by Cheng-Prussoff equation; read-out: pKi (hV1a) (converted).
T1 construct: expressed in transfected cells; host or cells: HEK293 cells, transiently transfected; membrane preparation
T1 sequence (P37288 whole entry): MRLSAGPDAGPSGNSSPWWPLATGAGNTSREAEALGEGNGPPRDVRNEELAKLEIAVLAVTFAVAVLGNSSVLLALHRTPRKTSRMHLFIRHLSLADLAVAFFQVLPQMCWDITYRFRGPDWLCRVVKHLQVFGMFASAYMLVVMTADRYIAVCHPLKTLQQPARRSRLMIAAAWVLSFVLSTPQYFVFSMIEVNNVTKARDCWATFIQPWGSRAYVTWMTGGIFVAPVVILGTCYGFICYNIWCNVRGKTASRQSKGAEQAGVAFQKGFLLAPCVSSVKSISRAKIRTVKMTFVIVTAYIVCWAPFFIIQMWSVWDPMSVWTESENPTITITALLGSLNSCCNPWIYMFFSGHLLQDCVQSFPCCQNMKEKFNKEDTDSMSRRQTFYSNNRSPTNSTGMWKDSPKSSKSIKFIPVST
Protocol: The human V1a receptor was cloned by RT-PCR from total human liver RNA. The coding sequence was subcloned in an expression vector after sequencing to confirm the identity of the amplified sequence. […] Cell membranes were prepared from HEK293 cells transiently transfected with the expression vector and grown in 20 liter fermenters with the following protocol.
50 g of cells are resuspended in 30 ml freshly prepared ice cold Lysis buffer (50 mM HEPES, 1 mM EDTA, 10 mM magnesium dichloride adjusted to pH=7.4+complete cocktail of protease inhibitor (Roche Diagnostics)). Homogenized with Polytron for 1 min and sonicated on ice for 2×2 minutes at 80% intensity (Vibracell sonicator). The preparation is centrifuged 20 min at 500 g at 4° C., the pellet is discarded and the supernatant centrifuged 1 hour at 43'000 g at 4° C. (19'000 rpm). The pellet is resuspended in 12.5 ml Lysis buffer+12.5 ml Sucrose 20% and homogenized using a Polytron for 1-2 min. The protein concentration is determined by the Bradford method and aliquots are stored at −80° C. until use. For binding studies 60 mg Yttrium silicate SPA beads (Amersham) are mixed with an aliquot of membrane in binding buffer (50 mM Tris, 120 mM sodium chloride, 5 mM potassium chloride, 2 mM Calcium dichloride, 10 mM magnesium dichloride) for 15 minutes with mixing. 50 μl of bead/membrane mixture is then added to each well of a 96 well plate, followed by 50 μl of 4 nM 3H-Vasopressin (American Radiolabeled Chemicals). For total binding measurement 100 μl of binding buffer are added to the respective wells, for non-specific binding 100 μl of 8.4 mM cold vasopressin and for compound testing 100 μl of a serial dilution of each compound in 2% dimethyl sulfoxide. The plate is incubated 1 h at room temperature, centrifuged […] at 1000 g and counted on a Packard Top-Count. Non-specific binding counts are subtracted from each well and data is normalized to the maximum specific binding set at 100%. To calculate an IC 50 the curve is fitted using a non-linear regression model (XLfit) and the Ki is calculated using the Cheng-Prussoff equation.
For `COc1cccc(O[C@H]2CC[C@H](c3nnc4n3-c3ccc(Cl)cc3CN(C(=O)OC(C)(C)C)C4)CC2)c1` [Example 29, trans-8-Chloro-1-[4-(3-methoxy-phenoxy)-cyclohexyl]-4H,6H-2,3,5,10b-tetraaza-benzoazulene-5-carboxylic acid tert-butyl ester], the Ki was 4.68 nM.
In the case of `CC(C)(C)OC(=O)N1Cc2cc(Cl)ccc2-n2c(nnc2[C@H]2CC[C@H](Oc3ccccc3)CC2)C1` [Example 1, trans-8-Chloro-1-(4-phenoxy-cyclohexyl)-4H,6H-2,3,5,10b-tetraaza-benzoazulene-5-carboxylic acid tert-butyl ester], the Ki is reported as 3.24 nM.
Compound `CN1Cc2cc(Cl)ccc2-n2c(nnc2[C@H]2CC[C@H](Oc3cccnc3)CC2)C1` [Example 63, trans-8-Chloro-5-methyl-1-[4-(pyridin-3-yloxy)-cyclohexyl]-5,6-dihydro-4H-2,3,5,10b-tetraaza-benzoazulene] has a Ki of 4.57 nM.
For `CN1Cc2cc(Cl)ccc2-n2c(nnc2[C@H]2CC[C@H](Oc3cncc(Cl)c3)CC2)C1` [Example 66, trans-8-Chloro-1-[4-(5-chloro-pyridin-3-yloxy)-cyclohexyl]-5-methyl-5,6-dihydro-4H-2,3,5,10b-tetraaza-benzoazulene], the Ki was 9.12 nM.
`CC(C)(C)OC(=O)N1Cc2cc(Cl)ccc2-n2c(nnc2[C@H]2CC[C@@H](Oc3ccccc3)CC2)C1` [Example 14, cis-8-Chloro-1-(4-phenoxy-cyclohexyl)-4H,6H-2,3,5,10b-tetraaza-benzoazulene-5-carboxylic acid tert-butyl ester] gave a Ki of 9.33 nM.
For `CN1Cc2cc(Cl)ccc2-n2c(nnc2[C@H]2CC[C@H](Oc3ccc(Cl)cn3)CC2)C1` [Example 75, trans-8-Chloro-1-[4-(5-chloro-pyridin-2-yloxy)-cyclohexyl]-5-methyl-5,6-dihydro-4H-2,3,5,10b-tetraaza-benzo[e]azulene], the Ki was 2.82 nM.
`CN1Cc2cc(Cl)ccc2-n2c(nnc2[C@H]2CC[C@H](Oc3ccccc3C#N)CC2)C1` [Example 48, trans-2-[4-(8-Chloro-5-methyl-5,6-dihydro-4H-2,3,5,10b-tetraaza-benzoazulen-1-yl)-cyclohexyloxy]-benzonitrile] gave a Ki of 0.794 nM.
With `CC(C)(C)OC(=O)N1Cc2cc(Cl)ccc2-n2c(nnc2[C@H]2CC[C@H](Oc3ccc(C#N)cc3)CC2)C1` [Example 20, trans-8-Chloro-1-[4-(4-cyano-phenoxy)-cyclohexyl]-4H,6H-2,3,5,10b-tetraaza-benzo[e]azulene-5-carboxylic acid tert-butyl ester] the Ki was 7.76 nM.
`CN(C)CC(=O)N1Cc2cc(Cl)ccc2-n2c(nnc2[C@H]2CC[C@H](Oc3ccccc3)CC2)C1` [Example 10, trans-1-[8-Chloro-1-(4-phenoxy-cyclohexyl)-4H,6H-2,3,5,10b-tetraaza-benzoazulen-5-yl]-2-dimethylamino-ethanone] gave a Ki of 2.09 nM.
`Cc1cccc(O[C@H]2CC[C@H](c3nnc4n3-c3ccc(Cl)cc3CN(C(=O)OC(C)(C)C)C4)CC2)c1` [Example 35, trans-8-Chloro-1-(4-m-tolyloxy-cyclohexyl)-4H,6H-2,3,5,10b-tetraaza-benzo[e]azulene-5-carboxylic acid tert-butyl ester] gave a Ki of 4.9 nM.
With `Fc1ccc(O[C@H]2CC[C@H](c3nnc4n3-c3ccc(Cl)cc3CNC4)CC2)cc1` [Example 18, trans-8-Chloro-1-[4-(4-fluoro-phenoxy)-cyclohexyl]-5,6-dihydro-4H-2,3,5,10b-tetraaza-benzo[e]azulene hydrochloride] the Ki was 9.55 nM.
`CC(C)(C)OC(=O)N1Cc2cc(Cl)ccc2-n2c(nnc2[C@H]2CC[C@H](Oc3ccccn3)CC2)C1` [Example 67, trans-8-Chloro-1-[4-(pyridin-2-yloxy)-cyclohexyl]-4H,6H-2,3,5,10b-tetraaza-benzoazulene-5-carboxylic acid tert-butyl ester] showed a Ki of 3.31 nM.
`Cc1ccccc1O[C@H]1CC[C@H](c2nnc3n2-c2ccc(Cl)cc2CN(C)C3)CC1` [Example 51, trans-8-Chloro-5-methyl-1-(4-o-tolyloxy-cyclohexyl)-5,6-dihydro-4H-2,3,5,10b-tetraaza-benzoazulene] showed a Ki of 3.72 nM.
In the case of `CN1Cc2cc(Cl)ccc2-n2c(nnc2[C@H]2CC[C@H](Oc3cccnn3)CC2)C1` [Example 95, trans-8-Chloro-5-methyl-1-[4-(pyridazin-3-yloxy)-cyclohexyl]-5,6-dihydro-4H-2,3,5,10b-tetraaza-benzo[e]azulene], the Ki is reported as 9.12 nM.
Work on `Clc1ccc(O[C@H]2CC[C@H](c3nnc4n3-c3ccc(Cl)cc3CNC4)CC2)nc1` [Example 74, trans-8-Chloro-1-[4-(5-chloro-pyridin-2-yloxy)-cyclohexyl]-5,6-dihydro-4H-2,3,5,10b-tetraaza-benzo[e]azulene hydrochloride] yielded a Ki of 11.2 nM.
Compound `CN1Cc2cc(Cl)ccc2-n2c(nnc2[C@H]2CC[C@H](Oc3cccc(Cl)c3)CC2)C1` [Example 28, trans-8-Chloro-1-[4-(3-chloro-phenoxy)-cyclohexyl]-5-methyl-5,6-dihydro-4H-2,3,5,10b-tetraaza-benzoazulene] has a Ki of 3.09 nM.
Work on `CN1Cc2cc(Cl)ccc2-n2c(nnc2[C@H]2CC[C@H](Oc3cccc(C#N)c3)CC2)C1` [Example 34, trans-3-[4-(8-Chloro-5-methyl-5,6-dihydro-4H-2,3,5,10b-tetraaza-benzoazulen-1-yl)-cyclohexyloxy]-benzo nitrile] yielded a Ki of 2.69 nM.
Compound `CC(=O)N1Cc2cc(Cl)ccc2-n2c(nnc2[C@H]2CC[C@H](Oc3ccccc3)CC2)C1` [Example 4, trans-1-[8-Chloro-1-(4-phenoxy-cyclohexyl)-4H,6H-2,3,5,10b-tetraaza-benzoazulen-5-yl]-ethanone] has a Ki of 1.41 nM.
Work on `CN1Cc2cc(Cl)ccc2-n2c(nnc2[C@H]2CC[C@H](Oc3cc(F)cc(F)c3)CC2)C1` [Example 54, trans-8-Chloro-1-[4-(3,5-difluoro-phenoxy)-cyclohexyl]-5-methyl-5,6-dihydro-4H-2,3,5,10b-tetraaza-benzoazulene] yielded a Ki of 3.89 nM.
Work on `CN1Cc2cc(Cl)ccc2-n2c(nnc2[C@H]2CC[C@H](Oc3ccccc3)CC2)C1` [Example 3, trans-8-Chloro-5-methyl-1-(4-phenoxy-cyclohexyl)-5,6-dihydro-4H-2,3,5,10b-tetraaza-benzo[e]azulene] yielded a Ki of 1.58 nM.
For `OCCN1Cc2cc(Cl)ccc2-n2c(nnc2[C@H]2CC[C@H](Oc3ccccc3)CC2)C1` [Example 6, trans-2-[8-Chloro-1-(4-phenoxy-cyclohexyl)-4H,6H-2,3,5,10b-tetraaza-benzoazulen-5-yl]-ethanol], the Ki was 1.58 nM.
In the case of `Clc1ccc2c(c1)CN(Cc1ccccn1)Cc1nnc([C@H]3CC[C@H](Oc4ccccc4)CC3)n1-2` [Example 9, trans-8-Chloro-1-(4-phenoxy-cyclohexyl)-5-pyridin-2-ylmethyl-5,6-dihydro-4H-2,3,5,10b-tetraaza-benzoazulene], the Ki is reported as 1.82 nM.
For `CC(C)(C)OC(=O)N1Cc2cc(Cl)ccc2-n2c(nnc2[C@H]2CC[C@H](Oc3ccccc3C#N)CC2)C1` [Example 46, trans-8-Chloro-1-[4-(2-cyano-phenoxy)-cyclohexyl]-4H,6H-2,3,5,10b-tetraaza-benzoazulene-5-carboxylic acid tert-butyl ester], the Ki was 2.88 nM.
`CN1Cc2cc(F)ccc2-n2c(nnc2[C@H]2CC[C@H](Oc3ccccc3)CC2)C1` [Example 13, trans-8-Fluoro-5-methyl-1-(4-phenoxy-cyclohexyl)-5,6-dihydro-4H-2,3,5,10b-tetraaza-benzoazulene] gave a Ki of 5.37 nM.
For `CN1Cc2cc(Cl)ccc2-n2c(nnc2[C@H]2CC[C@H](Oc3ccccn3)CC2)C1` [Example 69, trans-8-Chloro-5-methyl-1-[4-(pyridin-2-yloxy)-cyclohexyl]-5,6-dihydro-4H-2,3,5,10b-tetraaza-benzoazulene], the Ki was 1.1 nM.
`CN1Cc2cc(Cl)ccc2-n2c(nnc2[C@H]2CC[C@H](Oc3ccc(F)cc3)CC2)C1` [Example 19, trans-8-Chloro-1-[4-(4-fluoro-phenoxy)-cyclohexyl]-5-methyl-5,6-dihydro-4H-2,3,5,10b-tetraaza-benzoazulene] gave a Ki of 3.09 nM.
`CC(C)(C)OC(=O)N1Cc2cc(Cl)ccc2-n2c(nnc2[C@H]2CC[C@H](Oc3cccc(Cl)c3)CC2)C1` [Example 26, trans-8-Chloro-1-[4-(3-chloro-phenoxy)-cyclohexyl]-4H,6H-2,3,5,10b-tetraaza-benzoazulene-5-carboxylic acid tert-butyl ester] gave a Ki of 4.17 nM.
With `CC(C)(C)OC(=O)N1Cc2cc(Cl)ccc2-n2c(nnc2[C@H]2CC[C@H](Oc3ccc4ccccc4c3)CC2)C1` [Example 55, trans-8-Chloro-1-[4-(naphthalen-2-yloxy)-cyclohexyl]-4H,6H-2,3,5,10b-tetraaza-benzoazulene-5-carboxylic acid tert-butyl ester] the Ki was 9.33 nM.

From patent US8461152B2, “Arylcyclohexylethers of dihydrotetraazabenzoazulenes” (Hoffmann-La Roche Inc., priority 2008, dated 2013)
